Results from US20250162990A1, “COMPOUNDS AND METHODS FOR INHIBITING CANCERS OVER-EXPRESSING REPLICATION FACTOR C 40” (RAADYSAN BIOTECH, INC., priority 2022, published 2025).

Legend:
[1] = tested on: MDA-MB-231 cells; assay: Apoptosis, caspase3/7 activation, ApoLive Glo Multiplex Assay; type: cell-based; conditions: 24 hr, caspase3/7 luminescence
Experimental: (§1) Non-cancerous breast epithelial cells (MCF10A) and TNBC cell line (MDA-MB-231; mesenchymal; originating from a person) were purchased from the ATCC (American Type Culture Collection, Manassas, Virginia). The effect of the 7 SMEs on cell viability and apoptosis, in MDA-MB-231 and MCF10A cell lines, respectively, was determined as follows. The MCF10A and MDA-MB-231 cells were incubated with different concentrations (100 μM, 10 μM, 1 μM, 0.1 μM, 10 nM, 1 nM, 0.1 nM, and DMSO only) of the 7 SMEs for 24 hours at 37° C. Cell viability and apoptosis was estimated using the ApoLive Glo Multiplex Assay kit 29 (Promega, Madison, WI). Live-cell protease fluorescence (cell viability) was measured at 400 Ex/505 Em and caspase3/7 activation (apoptosis) was measured by luminescence on Envision plate reader.

[2] = tested on: MDA-MB-231 cells (TNBC cell line); assay: Cell viability, ApoLive Glo Multiplex Assay (live-cell protease fluorescence); type: cell-based; conditions: for EC50: Homo sapiens, MDA-MB-231, 24 hours at 37° C., read-out: EC50, inhibition of TNBC cell viability; for inhibited TNBC cell viability: MDA-MB-231, 24 hours, dose-dependent (up to 100 μM)
Experimental: as §1

[3] = tested on: MCF10A cells (non-cancerous breast epithelial cells); assay: as above; type: cell-based; conditions: 24 hours; for effect on the cell viability of MCF10A cells at lower drug concentrations: concentrations of up to 10 μM; for effect on the cell viability of MCF10A cells: 0.1 nM to 100 μM
Experimental: as §1

[4] = biological target: T1, Recombinant human RFC40 protein (Homo sapiens, UniProt P35250); assay: RFC40 ATPase enzyme activity, ADP-Glo Max Assay; type: biochemical; conditions: RFC40 250 nM, ATP 25 μM; for inhibition at 0.0001 µM: 0.1 nM compound, after 90 min pre-incubation, read-out: time-dependent increase in the inhibition of the RFC40 enzyme activity; for inhibition of RFC40 enzyme activity after 30 min of incubation: 30 min pre-incubation at 37° C.
T1 construct: purchased Origene Technologies (Rockville, MD)
Experimental: FIGS. 15A-B are graphs of RFC40 ATPase activity inhibition. Human recombinant RFC40 (250 nM) was pre-incubated, individually, with different concentrations of compounds labeled RDY00209 and RDY00120 at 37° C. ATP (25 μM) was then added to the mixture and the ATPase enzyme activity of RFC40 was estimated using the ADP-Glo Max Assay. FIG. 15A presents RFC40 enzyme activity after a 30 min incubation with each compound, and FIG. 15B presents RFC40 enzyme activity after a 90 min incubation with each compound.
Method: Biochemical assays were performed to determine the effects of the 2 SMEs RDY00209 and RDY00120 on the enzymatic activity of RFC40. Recombinant human RFC40 protein was purchased from Origene Technologies (Rockville, MD). ATPase enzyme activity of RFC40 was estimated using the ADP-Glo Max Assay kit^32 (Promega, Madison, WI), as per the manufacturer's instructions. RFC40 (250 nM) was pre-incubated, individually, with different concentrations (100 μM, 0.1 μM, 0.1 nM and 0) of RDY00209 and RDY00120 for 30 min and 90 min, respectively, at 37° C. ATP (25 μM) was then added to the mixture and incubated for another 3 hours at 37° C. Luminescence was read on an Envision plate reader.

[5] = biological target: T2, RFC40 in HEK293 cells (Homo sapiens, UniProt P35250); assay: RFC40 protein expression by Western blot; type: cell-based; conditions: 2 different concentrations, 24 hr
T2 construct: endogenous in cells; host or cells: HEK293
Experimental: HEK293 cells were plated in 6-well plates and grown until they were 80% confluent. The cells were then treated with RDY00012, in a dose-dependent manner [100 μM, 10 μM, 1 μM, 0.1 μM, 0 μM (DMSO only)], for 24 hours at 37° C. Samples were run 9% SDS-PAGE and Western blot analysis was performed using rabbit polyclonal anti-RFC40 (1:100, Abcepta) and mouse monoclonal anti-β-Actin (1:500, Santa Cruz Tech) primary antibodies, respectively. Following incubation with anti-rabbit, and anti-mouse secondary antibodies, respectively, specific proteins were detected by chemiluminescence.

T1 sequence (P35250 whole entry): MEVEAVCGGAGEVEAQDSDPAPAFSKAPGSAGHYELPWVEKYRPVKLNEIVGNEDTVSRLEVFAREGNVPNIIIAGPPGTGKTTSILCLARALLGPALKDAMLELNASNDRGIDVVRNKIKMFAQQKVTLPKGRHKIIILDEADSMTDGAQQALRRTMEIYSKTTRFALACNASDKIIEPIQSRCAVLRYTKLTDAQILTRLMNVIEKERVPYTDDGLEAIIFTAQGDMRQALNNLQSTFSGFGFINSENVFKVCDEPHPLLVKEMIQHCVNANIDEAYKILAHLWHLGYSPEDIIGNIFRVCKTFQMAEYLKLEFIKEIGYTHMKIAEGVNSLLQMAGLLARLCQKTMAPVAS
T2 sequence (P35250 whole entry): as above

SMILES: COc1cccc(-c2ccc(=O)n(CCCC(=O)Nc3nnc(C)s3)n2)c1 [RDY00034]
- induction of apoptosis in MDA-MB-231 cells [1]: did not induce apoptosis
- EC50 [2]: 5.42 µM
- inhibited TNBC cell viability [2]: 95%
- effect on the cell viability of MCF10A cells at lower drug concentrations [3]: did not affect

SMILES: O=C(O)CNC(=O)CCn1ccc2ccc(Cl)cc21 [RDY00209]
- induction of apoptosis in MDA-MB-231 cells [1]: did not induce apoptosis
- EC50 [2]: 6.92 µM
- inhibited TNBC cell viability [2]: 95%
- effect on the cell viability of MCF10A cells [3]: no effect
- inhibition at 0.0001 µM [4]: 22.1%
- inhibition of RFC40 enzyme activity after 30 min of incubation [4]: inhibited the enzyme activity in a dose-dependent manner

SMILES: O=C(O)c1ccc(OCc2ccc3nsnc3c2)cc1 [RDY00012]
- expression of RFC40 [5]: downregulated the expression of RFC40
- induction of apoptosis in MDA-MB-231 cells [1]: did not induce apoptosis
- EC50 [2]: 7.81 µM
- inhibited TNBC cell viability [2]: 95%
- effect on the cell viability of MCF10A cells at lower drug concentrations [3]: did not affect

SMILES: O=C(O)c1csc(S(=O)(=O)Nc2cccc3c2CCCC3)c1 [RDY00120]
- induction of apoptosis in MDA-MB-231 cells [1]: did not induce apoptosis
- EC50 [2]: 7.14 µM
- inhibited TNBC cell viability [2]: 95%
- effect on the cell viability of MCF10A cells [3]: no effect
- inhibition at 0.0001 µM [4]: 36.5%
- inhibition of RFC40 enzyme activity after 30 min of incubation [4]: inhibited the enzyme activity in a dose-dependent manner
